According to patent US12491182B2, “Polymorphs of triazole antifungal compound PC945” (Pulmocide Limited, priority 2019, dated 2025):

Assay: Micronisation: particle size distribution and polymorphic integrity
Type: physicochemical
Settings: for polymorphic integrity during micronisation (XRPD): XRPD trace after milling compared with before; for particle size distribution D10 / particle size distribution D50 / particle size distribution D90: after micronisation
Text: Liquid suspension and aerosol formulations (whether pressurised or unpressurised) will typically contain the compound of the invention in particulate form, for example with a D50 of 0.5-10 μm, suitably around 1-5 μm, such as 1-2 μm. Suitably, the compound of the invention in particulate form has a D10 of 0.2 to 1 μm, such as 0.2 to 0.5 μm. Suitably, the compound of the invention in particulate form has a D90 of 2 to 6 μm such as 3 to 4 μm. The particulate form of the compound may, for example, be a micronised form. Micronisation may be performed using a jet mill such as those manufactured by Hosokawa Alpine. The resultant particle size distribution may be measured using laser diffraction (e.g. with a Malvern Mastersizer 2000S instrument). Particle size distributions may be represented using D10, D50 and D90 values. The Dso median value of particle size distributions is defined as the particle size in microns that divides the distribution in half. The measurement derived from laser diffraction is more accurately described as a volume distribution and consequently the D50 value obtained using this procedure is more meaningfully referred to as a Dv50 value (median for a volume distribution). As used herein Dv values refer to particle size distributions measured using laser diffraction. Similarly, D10 and D90 values, used in the context of laser diffraction, are taken to mean Dv10 and Dv90 values and refer to the particle size whereby 10% of the distribution lies below the D10 value, and 90% of the distribution lies below the D90 value, respectively.
A sample of crude input material (100 g, Form 3) was suspended in a mixture of 5% water in acetone (1.00 L), a seed of Form 1 (100 mg) was added and the mixture was stirred at RT overnight. The suspension was filtered and the filter cake was washed with a mixture of 5% water in acetone (20 mL) and the solids dried at 40° C. to provide polymorphic Form 1 as a white powder (85.5 g, 85.5% recovery, 98.7% purity by HPLC) as determined from its DSC trace (FIG. 9). Micronisation of the product so obtained provided a powder for which the particle size distribution, expressed in D values, was as follows: […].
Micronisation of the product so obtained provided a powder for which the particle size distribution, expressed in D values, was as follows: […]. It will be appreciated by those skilled in the art that these characteristics are suitable for a product intended for administration by inhalation. […] The Form 2 polymorph is therefore susceptible to and stable towards the micronisation process required to derive a material with the properties necessary for its intended purpose.

Structure (SMILES)	polymorphic integrity during micronisation (XRPD)	particle size distribution D10 [µm]	particle size distribution D50 [µm]	particle size distribution D90 [µm]
Cc1cc(N2CCN(c3ccc(C(=O)Nc4ccc(F)cc4)cc3)CC2)ccc1OC[C@@H]1CO[C@@](Cn2cncn2)(c2ccc(F)cc2F)C1 [Form 1, 4-(4-(4-(((3R,5R)-5-((1H-1,2,4-triazol-1-yl)methyl)-5-(2,4-difluorophenyl)tetrahydrofuran-3-yl)methoxy)-3-methylphenyl)piperazin-1-yl)-N-(4-fluorophenyl)benzamide]	polymorphic integrity was retained	0.75	1.59	3.23
Cc1cc(N2CCN(c3ccc(C(=O)Nc4ccc(F)cc4)cc3)CC2)ccc1OC[C@@H]1CO[C@@](Cn2cncn2)(c2ccc(F)cc2F)C1 [Form 2, 4-(4-(4-(((3R,5R)-5-((1H-1,2,4-triazol-1-yl)methyl)-5-(2,4-difluorophenyl)tetrahydrofuran-3-yl)methoxy)-3-methylphenyl)piperazin-1-yl)-N-(4-fluorophenyl)benzamide]	no significant change	0.42	1.24	3.57
